Ki data for 20 compounds are collected here from US8829011B2 (Janssen Pharmaceutica NV, priority 2008, dated 2014).

Test [1] deals with T1, human recombinant 5-HT2C receptor (Homo sapiens, UniProt P28335).
T1 construct: expressed in transfected cells; host or cells: CHO
T1 sequence (P28335 33-458): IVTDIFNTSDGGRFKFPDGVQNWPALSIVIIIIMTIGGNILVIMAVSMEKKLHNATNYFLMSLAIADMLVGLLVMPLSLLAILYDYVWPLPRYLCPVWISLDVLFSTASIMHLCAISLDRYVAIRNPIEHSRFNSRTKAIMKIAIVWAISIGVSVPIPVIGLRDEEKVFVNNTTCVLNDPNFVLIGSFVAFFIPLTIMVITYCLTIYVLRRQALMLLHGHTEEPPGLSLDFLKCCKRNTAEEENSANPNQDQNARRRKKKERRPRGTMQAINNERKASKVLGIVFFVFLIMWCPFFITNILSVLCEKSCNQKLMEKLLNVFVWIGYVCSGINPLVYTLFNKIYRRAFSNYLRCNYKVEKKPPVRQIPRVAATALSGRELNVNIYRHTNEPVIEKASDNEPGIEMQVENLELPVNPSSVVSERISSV
The test is described as follows: Affinity for 5-HT2C receptor binding sites (competitive radioligand binding, [3H]mesulergine). The following applies: membranes of CHO with h5-HT2C, * = tested as hydrochloride salt. The method, then:
(§1) Stock drug solutions (10 mM) were prepared in DMSO (the final assay concentration of DMSO not exceeding 0.4%). Drug dilutions were prepared in assay buffer.
(§2) Sigmoidal inhibition curves were generated and fitted by nonlinear regression analysis (GraphPad Prism).
(§3) 2. Affinity for 5HT2 Receptor Binding Sites
(§4) Receptor binding was performed using the human recombinant 5-HT2A (GB: X57830), 5-HT2B (GB: Z36748) and 5-HT2C (GB: M81778) receptors. The affinity of the compounds for the 3 different human 5-HT2 receptor subtypes was evaluated by competitive radioligand binding assays using [^3H]ketanserin (h5-HT2A) or [^3H]mesulergine (h5-HT2B and h5-HT2C). The assays were performed on membranes prepared from NIH3T3 stably transfected with h5-HT2A or CHO stably transfected with h5-HT2B and h5-HT2C.

The target in test [2] is T2, human recombinant 5-HT6 receptor (Homo sapiens, UniProt P50406).
T2 construct: expressed in transfected cells; host or cells: HEK-293
T2 sequence (P50406 whole entry): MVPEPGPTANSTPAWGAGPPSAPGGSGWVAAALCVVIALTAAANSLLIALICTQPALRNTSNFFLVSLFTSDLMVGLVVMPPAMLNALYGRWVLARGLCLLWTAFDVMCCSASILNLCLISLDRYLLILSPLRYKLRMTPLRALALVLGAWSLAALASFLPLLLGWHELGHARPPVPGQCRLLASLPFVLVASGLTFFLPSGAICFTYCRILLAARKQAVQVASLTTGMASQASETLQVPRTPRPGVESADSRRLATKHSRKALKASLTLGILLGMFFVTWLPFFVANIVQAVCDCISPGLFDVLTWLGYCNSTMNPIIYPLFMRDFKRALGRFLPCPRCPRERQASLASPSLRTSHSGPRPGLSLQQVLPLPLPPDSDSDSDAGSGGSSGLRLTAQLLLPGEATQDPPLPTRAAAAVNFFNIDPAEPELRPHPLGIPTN
The test is described as follows: Affinity for 5-HT6 receptor binding sites (competitive radioligand binding, [3H]LSD). As to conditions: membranes of HEK-293 with h5-HT6, * = tested as hydrochloride salt. The procedure: as §1, §2
3. Affinity for 5-HT6 Receptor Binding Sites
Receptor binding was performed using the human recombinant 5-HT6 (GB: BC0794995) receptor. The affinity of the compounds for the human 5-HT6 receptor was evaluated by competitive radioligand binding assays using [^3H]LSD. The assays were performed on membranes prepared from HEK-293 stably transfected with h5-HT6. Non-specific binding was estimated in the presence of 1 μM clozapine.

In test [3] the target is T3, human recombinant 5-HT2B receptor (Homo sapiens, UniProt P41595).
T3 construct: expressed in transfected cells; host or cells: CHO
T3 sequence (P41595 whole entry): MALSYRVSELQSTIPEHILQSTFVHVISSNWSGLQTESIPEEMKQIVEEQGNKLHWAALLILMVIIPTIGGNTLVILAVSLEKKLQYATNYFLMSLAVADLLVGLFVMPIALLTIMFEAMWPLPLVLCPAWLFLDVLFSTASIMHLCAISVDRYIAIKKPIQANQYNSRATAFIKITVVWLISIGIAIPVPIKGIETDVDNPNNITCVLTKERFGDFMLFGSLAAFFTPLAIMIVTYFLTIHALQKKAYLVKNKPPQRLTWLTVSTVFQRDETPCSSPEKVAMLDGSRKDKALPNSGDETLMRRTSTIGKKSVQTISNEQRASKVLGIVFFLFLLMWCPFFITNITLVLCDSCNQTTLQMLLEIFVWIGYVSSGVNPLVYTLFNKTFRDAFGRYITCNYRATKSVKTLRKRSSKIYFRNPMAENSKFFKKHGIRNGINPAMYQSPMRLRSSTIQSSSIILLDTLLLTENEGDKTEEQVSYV
The test is described as follows: Affinity for 5-HT2B receptor binding sites (competitive radioligand binding, [3H]mesulergine). The following applies: membranes of CHO with h5-HT2B, * = tested as hydrochloride salt. The method, then: as §1, §2, §3, §4

Test [4] deals with T4, human recombinant 5-HT2A receptor (Homo sapiens, UniProt P28223).
T4 construct: expressed in transfected cells; host or cells: NIH3T3
T4 sequence (P28223 whole entry): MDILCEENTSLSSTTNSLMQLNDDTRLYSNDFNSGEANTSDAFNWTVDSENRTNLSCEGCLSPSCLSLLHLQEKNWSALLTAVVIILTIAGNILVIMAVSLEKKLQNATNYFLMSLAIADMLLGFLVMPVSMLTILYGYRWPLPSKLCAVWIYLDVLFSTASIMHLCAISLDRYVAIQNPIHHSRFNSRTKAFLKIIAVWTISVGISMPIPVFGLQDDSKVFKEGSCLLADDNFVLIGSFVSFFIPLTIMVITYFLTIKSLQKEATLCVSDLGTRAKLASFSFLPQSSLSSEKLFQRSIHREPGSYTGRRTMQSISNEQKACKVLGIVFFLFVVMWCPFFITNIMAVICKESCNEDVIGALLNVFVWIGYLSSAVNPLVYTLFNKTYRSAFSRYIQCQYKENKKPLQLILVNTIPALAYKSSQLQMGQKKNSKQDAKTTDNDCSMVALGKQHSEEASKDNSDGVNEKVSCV
The test is described as follows: Affinity for 5-HT2A receptor binding sites (competitive radioligand binding, [3H]ketanserin). The following applies: membranes of NIH3T3 with h5-HT2A, * = tested as hydrochloride salt. The procedure:
as §1, §2, §3, §4

Broadly, the Ki is the equilibrium dissociation constant of an inhibitor or competing ligand from its target. On to `C[C@@H]1CCC[C@H](C)N1c1nc2c(c(-c3ccc(Cl)c(Cl)c3)n1)CCNCC2` [Example 73, 4-(3,4-dichlorophenyl)-2-[(2R,6S)-2,6-dimethyl-1-piperidinyl]-6,7,8,9-tetrahydro-5H-pyrimido[4,5-d]azepine], for which the inhibitory constant (Ki) in test [1] was 38 nM; in test [2] it was 62 nM; in test [3], 7 nM; in test [4] it was 170 nM.

For `Clc1ccc(-c2nc(N3CCCCC3)nc3c2CCNCC3)cc1` [Example 74, 4-(4-chlorophenyl)-6,7,8,9-tetrahydro-2-(1-piperidinyl)-5H-pyrimido[4,5-d]azepine], the Ki in test [1] was 1 nM; in test [2], 46 nM; in test [3], 3 nM; in test [4] it was 4 nM.

As to `Cc1ccc(-c2nc(N3CCC(F)CC3)nc3c2CCNCC3)cc1Cl` [Example 76, 4-(3-chloro-4-methylphenyl)-2-(4-fluoro-1-piperidinyl)-6,7,8,9-tetrahydro-5H-pyrimido[4,5-d]azepine], the Ki in test [1] was found to be 15 nM; in test [2] it was 39 nM; in test [3], 16 nM; in test [4] it was 38 nM.

Consider `Cc1ccc(-c2nc(N3CCCC3C)nc3c2CCNCC3)cc1Cl` (centres unmarked) [Example 77, 4-(3-chloro-4-methylphenyl)-6,7,8,9-tetrahydro-2-(2-methyl-1-pyrrolidinyl)-5H-pyrimido[4,5-d]azepine], for which the Ki came to 33 nM in test [1], 51 nM in test [2], 9 nM in test [3] and 77 nM in test [4].

In the case of `Cc1ccc(-c2nc(N3[C@H](C)CCC[C@@H]3C)nc3c2CCNCC3)cc1Cl` [Example 79, 4-(3-chloro-4-methylphenyl)-2-[(2R,6S)-2,6-dimethyl-1-piperidinyl]-6,7,8,9-tetrahydro-5H-pyrimido[4,5-d]azepine], the Ki in test [1] stood at 26 nM; in test [2] it was 18 nM; in test [3] it was 7 nM; in test [4], 39 nM.

Regarding `COc1ccc(-c2nc(N3CCCC3C)nc3c2CCNCC3)cc1` (centres unmarked) [Example 80, 6,7,8,9-tetrahydro-4-(4-methoxyphenyl)-2-(2-methyl-1-pyrrolidinyl)-5H-pyrimido[4,5-d]azepine], the Ki in test [1] is 42 nM; in test [2] it was 39 nM; in test [3] it was 6 nM; in test [4], 140 nM.

On to `COc1ccc(-c2nc(N3[C@H](C)CCC[C@@H]3C)nc3c2CCNCC3)cc1` [Example 82, 2-[(2R,6S)-2,6-dimethyl-1-piperidinyl]-6,7,8,9-tetrahydro-4-(4-methoxyphenyl)-5H-pyrimido[4,5-d]azepine], for which the Ki in test [1] was 17 nM; in test [2] it was 35 nM; in test [3] it was 3 nM; in test [4] it was 48 nM.

For the compound `C[C@@H]1CCC[C@H](C)N1c1nc2c(c(-c3ccc(F)c(F)c3)n1)CCNCC2` [Example 83, 4-(3,4-difluorophenyl)-2-[(2R,6S)-2,6-dimethyl-1-piperidinyl]-6,7,8,9-tetrahydro-5H-pyrimido[4,5-d]azepine], the Ki in test [1] was found to be 39 nM; in test [2] it was 84 nM; in test [3], 12 nM; in test [4], 131 nM.

Turning to `C[C@@H]1CCC[C@H](C)N1c1nc2c(c(-c3ccc(Cl)c(F)c3)n1)CCNCC2` [Example 84, 4-(4-chloro-3-fluorophenyl)-2-[(2R,6S)-2,6-dimethyl-1-piperidinyl]-6,7,8,9-tetrahydro-5H-pyrimido[4,5-d]azepine], the Ki in test [1] was determined as 18 nM; in test [2], 52 nM; in test [3], 2 nM; in test [4] it was 130 nM.

With `Cc1ccc(-c2nc(N3[C@H](C)CCC[C@@H]3C)nc3c2CCNCC3)cc1F` [Example 85, 2-[(2R,6S)-2,6-dimethyl-1-piperidinyl]-4-(3-fluoro-4-methylphenyl)-6,7,8,9-tetrahydro-5H-pyrimido[4,5-d]azepine], the inhibition constant Ki in test [1] was determined as 15 nM; in test [2], 31 nM; in test [3] it was 2 nM; in test [4], 45 nM.

As for `Cc1ccc(-c2nc(N3[C@H](C)CCC[C@@H]3C)nc3c2CCNCC3)cn1` [Example 86, 2-[(2R,6S)-2,6-dimethyl-1-piperidinyl]-6,7,8,9-tetrahydro-4-(6-methyl-3-pyridinyl)-5H-pyrimido[4,5-d]azepine], the Ki in test [1] turned out to be 240 nM; in test [2] it was 80 nM; in test [3], 9 nM; in test [4] it was 660 nM.

As to `C[C@@H]1CCC[C@H](C)N1c1nc2c(c(-c3cnc4ccccc4c3)n1)CCNCC2` [Example 88, 2-[(2R,6S)-2,6-dimethyl-1-piperidinyl]-6,7,8,9-tetrahydro-4-(3-quinolinyl)-5H-pyrimido[4,5-d]azepine], the Ki is 600 nM in test [1], 12 nM in test [2], 64 nM in test [3] and 230 nM in test [4].

On to `COc1ccc(-c2nc(N3[C@H](C)CCC[C@@H]3C)nc3c2CCNCC3)cc1F` [Example 89, 2-[(2R,6S)-2,6-dimethyl-1-piperidinyl]-4-(3-fluoro-4-methoxyphenyl)-6,7,8,9-tetrahydro-5H-pyrimido[4,5-d]azepine], for which the Ki turned out to be 33 nM in test [1], 35 nM in test [2], 3 nM in test [3] and 180 nM in test [4].

For the compound `CC(C)c1ccc(-c2nc(N3[C@H](C)CCC[C@@H]3C)nc3c2CCNCC3)cc1` [Example 91, 2-[(2R,6S)-2,6-dimethyl-1-piperidinyl]-6,7,8,9-tetrahydro-4-[4-(1-methylethyl)phenyl]-5H-pyrimido[4,5-d]azepine], the inhibition constant (Ki) in test [1] is 45 nM; in test [2], 41 nM; in test [3] it was 6 nM; in test [4], 160 nM.

For `Cc1ccc(-c2nc(N3CCS(=O)(=O)CC3)nc3c2CCNCC3)cc1Cl` [Example 92, 4-(3-Chloro-4-methyl-phenyl)-2-(1,1-dioxo-1λ^6-thiomorpholin-4-yl)-6,7,8,9-tetrahydro-5H-pyrimido[4,5-d]azepine], the Ki was found to be 2040 nM in test [1], 85 nM in test [2], 950 nM in test [3] and 1140 nM in test [4].

Take `Cc1ccc(-c2nc(N3CCOC[C@@H]3C)nc3c2CCNCC3)cc1Cl` [Example 93, 4-(3-chloro-4-methylphenyl)-6,7,8,9-tetrahydro-2-[(3S)-3-methyl-4-morpholinyl]-5H-pyrimido[4,5-d]azepine]: the Ki in test [1] was 28 nM; in test [2] it was 9 nM; in test [3] it was 18 nM; in test [4], 150 nM.

For the compound `Cc1ccc(-c2nc(N3CCOC[C@@H]3C)nc3c2CCNCC3)cc1` [Example 94, 6,7,8,9-tetrahydro-2-[(3S)-3-methyl-4-morpholinyl]-4-(4-methylphenyl)-5H-pyrimido[4,5-d]azepine], the Ki in test [1] is 15 nM; in test [2], 8 nM; in test [3], 15 nM; in test [4], 25 nM.

For `C[C@H]1COCCN1c1nc2c(c(-c3cnc4ccccc4c3)n1)CCNCC2` [Example 95, 6,7,8,9-tetrahydro-2-[(3S)-3-methyl-4-morpholinyl]-4-(3-quinolinyl)-5H-pyrimido[4,5-d]azepine], the Ki in test [1] came out at 810 nM; in test [2] it was 7 nM; in test [3] it was 580 nM; in test [4], 150 nM.

In the case of `C[C@H]1COCCN1c1nc2c(c(-c3ccc(Cl)cc3)n1)CCNCC2` [Example 96, 4-(4-chlorophenyl)-6,7,8,9-tetrahydro-2-[(3S)-3-methyl-4-morpholinyl]-5H-pyrimido[4,5-d]azepine], the Ki in test [1] worked out at 69 nM; in test [2] it was 13 nM; in test [3], 35 nM; in test [4], 100 nM.

In the case of `Cc1ccc(-c2nc(N3CCOC[C@@H]3C)nc3c2CCNCC3)cc1F` [Example 97, 4-(3-fluoro-4-methylphenyl)-6,7,8,9-tetrahydro-2-[(3S)-3-methyl-4-morpholinyl]-5H-pyrimido[4,5-d]azepine], the inhibition constant (Ki) in test [1] amounted to 92 nM; in test [2], 23 nM; in test [3] it was 39 nM; in test [4], 400 nM.
